# Measurements published in patent publication US20100075370A1, “METHOD FOR DETERMINATION OF CELL VIABILITY BY USING FLOW CYTOMETRY WITH FIXED VOLUME ACQUISITION” (TUMORTEC GMBH, priority 2006, published 2010).
# Tested on: patient samples (pBMC from CLL patients)
# Assay: DiSC assay, chemosensitivity index Ci
# Assay type: cell-based, human
# Description: (2) A more complex standardization is the calculation of an index. In case of the chemosensitivity testing it is not a single value that has to be standardized. The chemosensitivity towards a drug is tested with several concentrations of the drug in parallel in a cell culture assay. […] This method was adopted for the present invention from the analysis of DiSC assays (Staib et al., British Journal of Haematology, 2005, 128, 783-791). The Chemosensitivity Index Ci was designed as a prognostic index for ex vivo chemosensitivity assays. Assay results were expressed as percent tumor cell survival (% TCS). The dose-response curve as a function of the dose-response relationship may be mathematically described by a […] regression model (FIG. 4). The dose-response curve was defined as CS=c1*e^conc*c2 % with cell survival (CS), drug concentration (conc) and the constants c1 and c2. c1 represented the y-axis distance and c2 the slope of the curve. The area under the curve (AUC) as an exact measure for the total dose response relation was defined as AUC=−e^c1/c2, on condition that c2 is less than 0, otherwise AUC is infinite. The chemosensitivity index, Ci, was set up as Ci=e^−AUC*c with a domain between 0 and 1. The drug-specific constant c was used for adjusting the Ci-value of 0.5 as the cut-off point between resistance and sensitivity. The constant c was defined as
# with AUCcut-off as the smallest AUC value among all clinical non-responding patients of the training data set. Obviously, all cytotoxic agents given for treatment were ineffective in these patients. The cut-off Ci value must be adjusted to 0.5 for prognosis of the effect of the drug on a patient in vivo when the drug is tested on said patient's cells in vitro using the method of the present invention. Ci values of 0-0.5 indicated resistance and values above 0.5 predicted sensitivity against the drug tested.
# The chemosensitivity index Ci based on the DiSC assay as described in Staib, P. et al., Br. J. Haematol., 128(6):783-91 (2005) is known to have a very high accuracy of prediction (98%) for the clinical outcome of a particular chemotherapy (Staib, P. et al., Br. J. Haematol., 128(6):783-91 (2005)). In order to evaluate the accuracy of the cytotoxicity assay as described in example 1 (“new method”), the Ci determination was performed for assay results of patient samples analyzed with the traditional DiSC assay and—in parallel—with the new assay method described in example 1. In total, 22 patient samples were analyzed. Fludara® was used in both assays. The cytotoxicity assay of example 1 was performed as described therein, and the DiSC assay was performed as described in Staib, P. et al., Br. J. Haematol., 128(6):783-91 (2005).
smiles,measurement,setting,value
"Nc1nc(F)nc2c1ncn2[C@@H]1O[C@H](COP(=O)(O)O)[C@@H](O)[C@@H]1O [Fludarabine phosphate, 2-Fluoro-9-(5-O-phosphono-β-D-arabinofuranosyl)-9H-purin-6-amine]",Ci (DiSC-Assay),patient #1,0.99
same,prediction (DiSC-Assay),patient #1,sensitive (values above 0.5 predicted sensitivity against the drug tested)
same,Ci (DiSC-Assay),patient #2,0.98
same,prediction (DiSC-Assay),patient #2,sensitive (values above 0.5 predicted sensitivity against the drug tested)
same,Ci (DiSC-Assay),patient #3,0.97
same,prediction (DiSC-Assay),patient #3,sensitive (values above 0.5 predicted sensitivity against the drug tested)
same,Ci (DiSC-Assay),patient #4,0.95
same,prediction (DiSC-Assay),patient #4,sensitive (values above 0.5 predicted sensitivity against the drug tested)
same,Ci (DiSC-Assay),patient #5,0.90
same,prediction (DiSC-Assay),patient #5,sensitive (values above 0.5 predicted sensitivity against the drug tested)
same,Ci (DiSC-Assay),patient #6,0.89
same,prediction (DiSC-Assay),patient #6,sensitive (values above 0.5 predicted sensitivity against the drug tested)
same,Ci (DiSC-Assay),patient #7,0.85
same,prediction (DiSC-Assay),patient #7,sensitive (values above 0.5 predicted sensitivity against the drug tested)
same,Ci (DiSC-Assay),patient #8,0.81
same,prediction (DiSC-Assay),patient #8,sensitive (values above 0.5 predicted sensitivity against the drug tested)
same,Ci (DiSC-Assay),patient #9,0.75
same,prediction (DiSC-Assay),patient #9,sensitive (values above 0.5 predicted sensitivity against the drug tested)
same,Ci (DiSC-Assay),patient #10,0.70
same,prediction (DiSC-Assay),patient #10,sensitive (values above 0.5 predicted sensitivity against the drug tested)
same,Ci (DiSC-Assay),patient #11,0.68
same,prediction (DiSC-Assay),patient #11,sensitive (values above 0.5 predicted sensitivity against the drug tested)
same,Ci (DiSC-Assay),patient #12,0.61
same,prediction (DiSC-Assay),patient #12,sensitive (values above 0.5 predicted sensitivity against the drug tested)
same,Ci (DiSC-Assay),patient #13,0.60
same,prediction (DiSC-Assay),patient #13,sensitive (values above 0.5 predicted sensitivity against the drug tested)
same,Ci (DiSC-Assay),patient #14,0.57
same,prediction (DiSC-Assay),patient #14,sensitive (values above 0.5 predicted sensitivity against the drug tested)
same,Ci (DiSC-Assay),patient #15,0.55
same,prediction (DiSC-Assay),patient #15,sensitive (values above 0.5 predicted sensitivity against the drug tested)
same,Ci (DiSC-Assay),patient #16,0.50
same,prediction (DiSC-Assay),patient #16,resistant (Ci values of 0-0.5 indicated resistance)
same,Ci (DiSC-Assay),patient #17,0.47
same,prediction (DiSC-Assay),patient #17,resistant (Ci values of 0-0.5 indicated resistance)
same,Ci (DiSC-Assay),patient #18,0.46
same,prediction (DiSC-Assay),patient #18,resistant (Ci values of 0-0.5 indicated resistance)
same,Ci (DiSC-Assay),patient #19,0.43
same,prediction (DiSC-Assay),patient #19,resistant (Ci values of 0-0.5 indicated resistance)
same,Ci (DiSC-Assay),patient #20,0.39
same,prediction (DiSC-Assay),patient #20,resistant (Ci values of 0-0.5 indicated resistance)
same,Ci (DiSC-Assay),patient #21,0.34
same,prediction (DiSC-Assay),patient #21,resistant (Ci values of 0-0.5 indicated resistance)
same,Ci (DiSC-Assay),patient #22,0.32
same,prediction (DiSC-Assay),patient #22,resistant (Ci values of 0-0.5 indicated resistance)
